Results taken from patent US7981401B2, “Diuretic aerosols and methods of making and using them” (priority 2002, dated 2011).

Key:
[1] = Volatilization on flashbar and HPLC purity analysis of the condensation aerosol; assay type: physicochemical; settings: heated to about 400° C. within about 200 ms, 15 L/min air
Description: Purity of a diuretic containing aerosol may be determined using a number of different methods. It should be noted that when the term “purity” is used, it refers to the percentage of aerosol minus the percent byproduct produced in its formation. Byproducts for example, are those unwanted products produced during vaporization. For example, byproducts include thermal degradation products as well as any unwanted metabolites of the active compound or compounds. Examples of suitable methods for determining aerosol purity are described in Sekine et al., Journal of Forensic Science 32:1271-1280 (1987) and in Martin et al., Journal of Analytic Toxicology 13:158-162 (1989).
One suitable method involves the use of a trap. In this method, the aerosol is collected in a trap in order to determine the percent or fraction of byproduct. Any suitable trap may be used. Suitable traps include filters, glass wool, impingers, solvent traps, cold traps, and the like. Filters are often most desirable. The trap is then typically extracted with a solvent, e.g. acetonitrile, and the extract subjected to analysis by any of a variety of analytical methods known in the art, for example, gas, liquid, and high performance liquid chromatography particularly useful.
(§1) About 1.1 mg of ethacrynic acid (MW 303, melting point 122° C., oral dose 25 mg) was dip coated onto the stainless steel surface of a flashbar apparatus at a thickness of about 1.32 μm. (The flashbar is a cylinder 3.5 cm long and 1.3 cm in diameter consisting of a hollow tube of 0.005″ thick stainless steel.) Brass electrodes were connected to either end of the steel cylinder. The coated flashbar was secured in an electrical mount, which connected to two 1.0 Farad capacitors in parallel. An airway was provided by a 2 cm diameter glass sleeve placed around the flashbar. 15 L/min of room air were pulled by a house vacuum through the vaporization chamber and a filter housing, which contained a two-micron Teflon filter. A power supply charged the capacitors to 20.5 volts, at which point the circuit was closed with a switch and the stainless steel flashbar was resistively heated to about 400° C. within about 200 milliseconds. The drug aerosolized and flowed through the airway and into the filter. The Teflon filter was extracted with 5 mL of acetonitrile, and the sample was run through an HPLC for purity analysis.
as §1, with “1.01” for “1.1”, “1.21” for “1.32”
About 1.09 mg of bumetanide (MW 364, melting point 231° C., oral dose 0.5 mg) was dip coated onto the stainless steel surface of a flashbar apparatus at a thickness of about 1.3 μm. (The flashbar is a cylinder 3.5 cm long and 1.3 cm in diameter consisting of a hollow tube of 0.005″ thick stainless steel.) Brass electrodes were connected to either end of the steel cylinder. The coated flashbar was secured in an electrical mount, which connected to two 1.0 Farad capacitors in parallel. […]

[2] = assay type: in vivo, Beagle dog
Description: This example is meant to illustrate one way in which toxicology and pharmacokinetic data may be investigated with respect to the bumetanide condensation aerosols described herein. Toxicology and pharmacokinetic data may be gathered by studying daily oropharyngeal inhalation of bumetanide condensation aerosols over a 14 day period using a beagle dog model.
Before treatment initiation, all animals are weighed and assigned to treatment groups using a randomization procedure. Animals are assigned into the following groups: bumetanide high dose, bumetanide mid dose, bumetanide low dose, and vehicle control at 3 animals per sex per dose. The dose levels for bumetanide are generally approximately 0.1 mg/kg for the low dose group, 0.5 mg/kg for the mid dose group, and 2 mg/kg for the high dose group. The dose levels can be refined through an initial dose ranging toxicology study.
Animals are treated with the test aerosols using an oropharyngeal face mask fitted with inlet and outlet tubes. During treatment, animals are placed in a restraint sling. A mask that allows the inhalation of test material to dogs is used. The test article is generated by vaporizing bumetanide by heating to roughly 400° C. The bumetanide is an approximately 1 micron thick film coating on a stainless steel foil, which was deposited on the foil by dip coating the foil into a solution of bumetanide dissolved in organic solvent.
The resulting aerosol formed by the condensation of the vaporized bumetanide is introduced into a mixing chamber via pre-dried compressed air. The mixing chamber is operated under slight positive pressure maintained by means of a gate valve located in the exhaust line. A vacuum pump is used to exhaust the inhalation chamber at the required flow rate and draw the contaminated air (excess aerosol and expired air) through a purifying system consisting of a 5 μm coarse filter before expelling the air from the building. The resulting atmosphere is carried to the dog mask via a delivery tube.
To ensure that the doses are correct, prior to the start of the treatment each day, atmosphere characterization of the test article aerosol is performed. Analysis of the aerosol particle size distribution for each bumetanide dose is conducted using a Cascade Impactor. Typical mass median aerodynamic diameter and geometric standard deviation measured during the study are 1.5 μm±2. Actual mask output concentrations of aerosol are measured during each exposure day from a sampling port from the animal breathing zone.
The achieved dose of active ingredient (mg/kg/day) for each treatment level is determined as follows: Achieved Dose of Active Ingredient=[RMV×Active Concentration×T×D]/BW
Where the achieved dose of the active ingredient is in mg/kg/day; the RMV (i.e., respiratory minute volume) is in L/min; the Active Concentration (i.e., chamber concentration of active ingredient determined by chemical analysis) is in mg/L; T (i.e., treatment time) is in minutes; D is the total aerosol deposition fraction, according to the particle size; and BW (i.e., mean body weight per sex per group from the regular body weight occasions during treatment) is in kg.
Dogs are treated with the bumetanide aerosol using the above approach to deliver the drug aerosol and compute the delivered dose. The exposure period required to deliver a dose is typically approximately 10 minutes. Plasma samples for pharmacokinetic analysis are collected on one or more treatment days. Samples are typically collected pre-dose, 2 minutes into dosing, and the end of dosing, 20 minutes post dose, 1 hour post dose, 3 hours post dose, 9 hours post dose, and 24 hours post dose. Samples are analyzed by an appropriate method such as LC/MS or LC/MS/MS to determine the pharmacokinetics of bumetanide absorption and elimination. […]

SMILES: Nc1nc(N)c2nc(-c3ccccc3)c(N)nc2n1 [triamterene]
- aerosol purity (HPLC) ([1]; film about 0.97 μm, from 88% formic acid): 99.76%
- aerosol purity (HPLC) ([1]; film about 1.11 μm, manually coated): 100%

SMILES: CC(=O)S[C@@H]1CC2=CC(=O)CC[C@]2(C)[C@H]2CC[C@@]3(C)[C@@H](CC[C@@]34CCC(=O)O4)[C@H]12 [spironolactone]
- aerosol purity (HPLC) ([1]; film about 0.85 μm on stainless steel): 100%
- aerosol purity (HPLC) ([1]; film about 1.01 μm on stainless steel): 100%

SMILES: CCCCNc1cc(C(=O)O)cc(S(N)(=O)=O)c1Oc1ccccc1 [bumetanide]
- mass median aerodynamic diameter of the aerosol ([2]; Cascade Impactor, typical value during the study): 1.5 μm
- food consumption ([2]; dog, in vivo): roughly normal
- gross pathology at necropsy ([2]; dog, in vivo): No treatment related findings
- histopathological examination of gross lesions ([2]; dog, in vivo): no treatment related findings
- histopathological examination of larynx, trachea, mainstem bronchi, lungs ([2]; dog, in vivo): No treatment related abnormalities are observed
- time of peak plasma levels ([2]; dog, in vivo): ≤ 10 min
- duration of the increase in urination following treatment ([2]; dog, inhalation): approximately 4 hour
- urination immediately following drug administration ([2]; dog, inhalation): an increase in urination is noted
- aerosol purity (HPLC) ([1]; film about 1.3 μm on stainless steel): 98.44%

SMILES: C=C(CC)C(=O)c1ccc(OCC(=O)O)c(Cl)c1Cl [ethacrynic acid]
- aerosol purity (HPLC) ([1]; film about 1.21 μm on stainless steel): 99.57%
- aerosol purity (HPLC) ([1]; film about 1.32 μm on stainless steel): 99.83%
